Measurements reported in PMC4418665, “Cyclization of the Urokinase Receptor-Derived Ser-Arg-Ser-Arg-Tyr Peptide Generates a Potent Inhibitor of Trans-Endothelial Migration of Monocytes” (PLoS ONE, 2015).
Peptide text beside a SMILES is read from it.

Key:
[1] = tested on: THP-1 cells crossing HUVEC monolayer; assay: Trans-endothelial migration assay, xCELLigence RTCA; assay type: cell-based, human; conditions: 10 nM peptide, 10% FBS, monitored 10 hours, Cell Index, quadruplicate
Text: (§1) Diapedesis of leukocytes plays a key role in the pathogenesis of inflammatory diseases and migration of monocytes from the blood into the sub-endothelial space is one of the earliest events. We investigated the effects of [SRSRY] on the number and morphology of THP-1 seeded to an endothelial monolayer. […] (Fig 5A). To examine the changes in morphology in more detail and quantify monocytes interacting with endothelial monolayer, we performed a subset of experiments using GFP-tagged THP-1, labeling co-cultures for F-actin and recording images by a confocal microscope. […] To further ascertain if [SRSRY] reduces trans-endothelial migration of monocytes, the ability of THP-1 cells to cross an endothelial monolayer was analyzed using the xCELLigence RTCA technology as previously described. […] At this time, reduction of impedance values, due to invading cells that interrupt monolayers was monitored in real-time for 10 hours. […]
(§2) Fig 5 [SRSRY] prevents trans-endothelial migration of THP-1 cells. […] Representative images of co-cultures analyzed by phase contrast microscopy at 100x with Scale bar: 50 μm (A) or stained with rhodamine- phalloidin and recorded by a confocal microscope (z-series with 0.25 μm intervals) at 630x with Scale bar: 10 μm (B). […] Fluorescent THP-1 cells which were adherent on the endothelial monolayer were counted on 10 fields/slide at 200x magnification. […]

[2] = tested on: GFP-tagged THP-1 cells on endothelial monolayer (HUVECs); assay: Monocyte diapedesis: GFP-tagged THP-1 cells on HUVEC monolayer; assay type: cell-based, human; conditions: 10 nM peptide, 30 minutes, 37°C, 10 fields/slide
Text: as §1, §2

human primary monocytes = assay: Primary monocyte migration in Boyden chambers; assay type: cell-based; conditions: 10 nM peptide, 90 minutes

N=C(N)NCCC[C@@H]1NC(=O)[C@H](CO)NC(=O)[C@H](Cc2ccc(O)cc2)NC(=O)[C@H](CCCNC(=N)N)NC(=O)[C@H](CO)NC1=O [[SRSRY], [Ser-Arg-Ser-Arg-Tyr]] (cyclo(RSRYS))
reduction of THP-1 trans-endothelial migration [1]: 35%
reduction of GFP-THP-1 cell number interacting with endothelial monolayer [2]: 40%
reduction of SRSRY-directed primary monocyte migration (human primary monocytes; 10 nM SRSRY): 49%
reduction of fMLF-directed primary monocyte migration (human primary monocytes; 10 nM fMLF): 50%
